# US10814115B2, “Microneedle devices and uses thereof” (MASSACHUSETTS INSTITUTE OF TECHNOLOGY, priority 2011, dated 2020)
# Where two headings read alike, the source gives them in different places.
# What was measured:
# [1] = cited from earlier work
# [2] = Visualization study: dye injection into 1.5% porcine gelatin with the microneedle prototype device; details: 0.025% dye
# Experimental: Using porcine gelatin, the effects of a microneedle prototype device was evaluated. Specifically, porcine gelatin was prepared at a concentration of 1.5% to mimic the density of gastrointestinal tissue. The gelatin provided the added benefit of allowing the application site to be visualized. A prototype device filled with a solution of 0.025% allura red dye was applied to the gel and a volume of 100-300 microliters of dye was injected. A second device lacking the needles was also used as a control.
# This highlights the efficacy of the microneedle device in deeper tissue penetration of the model drug compared to simple diffusion (simulated by the control device shown in FIGS. 10 A and B).
# Yorkshire swine [3] = tested on: Yorkshire swine
# Experimental: Yorkshire swine approximately 70 kg in weight were fasted overnight. The animal was sedated and a femoral venous catheter placed to enable frequent blood sampling for glucose monitoring. An endoscope was introduced orally or rectally depending on the tissue being accessed. Oral access for the stomach and small intestine and rectal access for the colon.
# Glucose levels were monitored by frequent blood sampling via the femoral venous catheter with the aid of a glucometer.
# This was administered with the use of a Carr-Locke needle which is 500 μm in length and 514 μm in diameter. Frequent blood glucose monitoring was performed via the use of a central line (femoral venous catheter).
# To further validate the delivery of biologics at different segment we further evaluated the use of microinjection in the duodenum (the first part of the small intestine). Here the pH ranges from 5.5-7 and there are a broader range of proteases.
# This was again administered with the use of the Carr-Locke needle. Frequent blood glucose monitoring was performed via the use of a central line (femoral venous catheter).
# This was administered with the use of the microneedle prototype shown previously. Frequent blood glucose monitoring was performed via the use of a central line (femoral venous catheter).
# Yorkshire swine [4] = details: 100 units in 10 ml saline enema
# Text: In order to evaluate the efficacy of abrasion and drug delivery a Yorkshire swine animal 70 kg in weight was fasted overnight. The animal was sedated and a central venous line was placed for frequent blood sampling. The rectum was cleansed with a tap water enema and an abrasion created in the rectal mucosa.
molecule,measurement,setting,value
CCCC1O[C@@H]2C[C@H]3[C@@H]4CCC5=CC(=O)C=C[C@]5(C)[C@H]4[C@@H](O)C[C@]3(C)[C@]2(C(=O)CO)O1 (some centres unmarked) [Budesonide],Known Toxic Levels,[1]; in vivo,3200 mg/kg
CC[C@H](C)[C@@H]1NC(=O)[C@H](Cc2ccc(O)cc2)NC(=O)[C@@H](N)CSSC[C@@H](C(=O)N2CCC[C@H]2C(=O)N[C@@H](CC(C)C)C(=O)NCC(N)=O)NC(=O)[C@H](CC(N)=O)NC(=O)[C@H](CCC(N)=O)NC1=O [Oxytocin],Known Toxic Levels,[1]; in vivo,">10,000 units/kg"
CC[C@H](C)[C@H](NC(=O)[C@@H]1CCCN1C(=O)CNC(=O)[C@H](Cc1ccccc1)NC(=O)[C@H](CC(N)=O)NC(=O)[C@H](CC(N)=O)NC(=O)[C@H](CO)NC(=O)[C@H](CO)NC(=O)[C@H](Cc1c[nH]cn1)NC(=O)[C@@H](NC(=O)[C@H](CC(C)C)NC(=O)[C@H](Cc1ccccc1)NC(=O)[C@H](CC(N)=O)NC(=O)[C@H](C)NC(=O)[C@H](CC(C)C)NC(=O)[C@H](CCCNC(=N)N)NC(=O)[C@H](CCC(N)=O)NC(=O)[C@@H](NC(=O)[C@H](C)NC(=O)[C@@H]1CSSC[C@H](NC(=O)[C@@H](N)CCCCN)C(=O)N[C@@H](CC(N)=O)C(=O)N[C@@H]([C@@H](C)O)C(=O)N[C@@H](C)C(=O)N[C@@H]([C@@H](C)O)C(=O)N1)[C@@H](C)O)C(C)C)C(=O)N[C@@H](CC(C)C)C(=O)N1CCC[C@H]1C(=O)N1CCC[C@H]1C(=O)N[C@H](C(=O)N[C@@H](CC(N)=O)C(=O)N[C@H](C(=O)NCC(=O)N[C@@H](CO)C(=O)N[C@@H](CC(N)=O)C(=O)N[C@H](C(=O)N[C@@H](Cc1ccc(O)cc1)C(N)=O)[C@@H](C)O)C(C)C)[C@@H](C)O [Pramlintide],Known Toxic Levels,[1]; in vivo,>600 µg/kg/day
"COc1cc(S(=O)(=O)[O-])c(C)cc1N=Nc1c(O)ccc2cc(S(=O)(=O)[O-])ccc12.[Na+].[Na+] [allura red dye, allura red]",Permeation of dye into gel matrix,[2]; control device lacking needles,expulsion of the dye over the gel surface
same,Permeation of dye into gel matrix,"[2]; device with microneedles, 100-300 microliters",enabled permeation of the dye into the gel matrix
Erythropoietin,Known Toxic Levels,[1]; in vivo,">100,000 units"
Etanercept,Known Toxic Levels,[1]; in vivo,>1000 mg/animal
Infliximab,Known Toxic Levels,[1]; no direct toxic effect observed,>20 mg/kg no
Rituximab,Known Toxic Levels,[1]; in vivo,>5 g/animal
insulin aspart,Hypoglycemic response (blood glucose versus post-injection time),"Yorkshire swine [3]; colon, 20 units, microneedle prototype, one experiment",hypoglycemic response
same,Hypoglycemic response (blood glucose versus post-injection time),"Yorkshire swine [3]; duodenum, 10 units, Carr-Locke needle, one experiment",hypoglycemic response
same,Time to hypoglycemic response after administration,"Yorkshire swine [3]; insulin injections, stomach, duodenum",20 to 40 min
same,Hypoglycemic response,"Yorkshire swine [3]; insulin release without the use of needles (control, 10 units)",did not induce a hypoglycemic (low glucose) response
same,Hypoglycemic response (blood glucose versus post-injection time),"Yorkshire swine [3]; stomach (transgastric), 10 units, Carr-Locke needle, 3 separate experiments",hypoglycemic response
same,Glucose levels after insulin enema,Yorkshire swine [4]; absence of an abrasion,did not decrease
same,Time to decrement in serum glucose after administration,Yorkshire swine [4]; rectal mucosa with abrasion,20 to 30 min
same,Serum glucose level after insulin enema,"Yorkshire swine [4]; rectal mucosa with abrasion, baseline glucose 80-82 mg/dL",60 mg/dL
